US5474988A, “5-phenylpyrrolo-1,4-benzoxazine and 5-phenylpyrrolo-1,4-benzothiazine compounds, process and intermediates for their production and pharmaceutical compositions containing them” (Kali-Chemie Pharma GmbH, priority 1993, dated 1995)

These compounds were tested against T1, 5-lipoxygenase (Cavia porcellus, UniProt A0A286X958) (assay: inhibitory activity on free 5-lipoxygenase concentrated from peritoneal PMNs of the guinea-pig (5-HETE formation)). Conditions: 10^-5 mole/liter; guinea-pig 5-LO, 37° C.; read-out: In vitro % inhibitory activity on 5-HETE formation caused by free 5-LO.
T1 construct: The 5-LO was concentrated in a known manner from PMNs of male Dunkin-Hartley guinea-pigs; endogenous in cells; host or cells: peritoneal PMNs of male Dunkin-Hartley guinea-pigs, homogenized; 10,000 x g supernatant used as enzyme solution
T1 sequence (A0A286X958 1-674): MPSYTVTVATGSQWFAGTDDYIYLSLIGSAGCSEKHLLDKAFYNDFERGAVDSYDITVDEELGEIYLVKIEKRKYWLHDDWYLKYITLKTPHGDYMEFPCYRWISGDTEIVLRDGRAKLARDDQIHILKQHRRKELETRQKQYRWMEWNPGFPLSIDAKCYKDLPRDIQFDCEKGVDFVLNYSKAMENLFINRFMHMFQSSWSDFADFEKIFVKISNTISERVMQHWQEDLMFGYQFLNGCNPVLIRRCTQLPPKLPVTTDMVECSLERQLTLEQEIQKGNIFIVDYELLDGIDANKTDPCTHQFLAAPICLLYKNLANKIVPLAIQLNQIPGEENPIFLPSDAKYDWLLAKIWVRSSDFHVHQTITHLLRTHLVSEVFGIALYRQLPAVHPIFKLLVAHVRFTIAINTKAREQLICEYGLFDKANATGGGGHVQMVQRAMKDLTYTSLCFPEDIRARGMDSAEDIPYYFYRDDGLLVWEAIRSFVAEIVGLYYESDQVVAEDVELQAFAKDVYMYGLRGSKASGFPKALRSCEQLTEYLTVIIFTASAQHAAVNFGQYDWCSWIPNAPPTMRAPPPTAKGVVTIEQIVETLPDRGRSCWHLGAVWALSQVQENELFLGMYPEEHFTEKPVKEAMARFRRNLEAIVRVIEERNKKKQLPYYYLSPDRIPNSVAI
Assay type: biochemical
Source text: 4b. In vitro determination of inhibitory activity on 5-lipoxygenase concentrated from peritoneal PMNs of the guinea-pig.
An inhibition of 5-lipoxygenase can be caused by direct inhibitory action of the substances on the enzyme and/or by interference with the activation of the enzyme. While in test 4a the 5-lipoxygenase inhibition of the substances was investigated in rat PMN cells, in test 4b the inhibitory activity of the substances was investigated on free 5-LO concentrated from guinea-pig PMN cells according to the method of D. Aharony et al., J. Biol. Chem. 261 (1986), 11512-11519 (1986).
The 5-LO was concentrated in a known manner from PMNs of male Dunkin-Hartley guinea-pigs (body weight 400 to 500 g) as follows. 10 ml of a solution containing 27.9 g/l of sodium thioglycolate were injected i.p. into the animals in order to induce the PMN invasion as a result of this inflammatory stimulus. After 22 hours, the animals were sacrificed by lethal ether anaesthesia. 70 ml of HBSS without Ca^++ and Mg^++ ions and containing 0.2% by weight of sodium citrate were then injected into the abdominal cavity. The cell suspension (>80% of the cells are PMNs) was withdrawn from the abdominal cavity, filtered through a cheese-making filter cloth, and washed twice with a 50 mM potassium phosphate buffer solution of pH 7.4, which contained 0.5 mM ethylenediaminetetraacetic acid, 1% by weight of gelatine and 20 μM indomethacin. The cells were resuspended, and the PMN suspension containing 10^8 cells/ml was homogenized three times for 15 seconds each in an ice-bath in a homogenizer of the Labsonic™ type set at high speed. The resulting suspension was centrifuged at 4° C. (15 minutes at 10,000×g). The supernatant liquid was used for the investigation as a solution of the free 5-LO enzyme.
The experiments were carried out at 37° C. for 7 minutes using 0.625 ml samples of this enzyme solution. For the experiments, the enzyme solution (=equivalent of 2.5×10^7 cells), 0.5 mM glutathione, 1 mM ATP and 0.3 mM calcium chloride were added to test tubes. […] of the test substance were added to the samples dissolved in sufficient dimethylformamide such that the dimethylformamide concentration in each test tube is 0.5%. Only dimethylformamide was added to the control samples. After 2 minutes, the formation of 5-(S)-hydroxy-6,8,11,14-eicosatetraenoic acid (=[…]) was initiated by addition 10 μM arachidonic acid. After 5 minutes, the reaction was terminated by addition of 0.625 ml of a mixture of methyl acetate/methanol/0.2 m citric acid 15:2:0.5 v/v/v. 5-HETE was extracted twice using this solvent mixture. The 5-HETE-containing phases were combined and evaporated to dryness under a nitrogen atmosphere. The residue was taken up in a mixture of methanol/water/acetic acid 75:21:0.02 v/v/v having a pH of 5.7, and the solution was investigated for its content of 5-HETE by means of reverse phase HPLC. To accomplish this, a […] silanized silica gel column (Hichrom® ODS2, 250×4.6 mm) was employed as the adsorbent and a mixture of methanol/water/acetic acid 75:21:0.02 adjusted to pH 5.7 with ammonia and having a flow rate of 1 ml/min was used as the eluent. 5-HETE, which was eluted as a single peak after 20 minutes, was identified by comparison with standard solutions eluted at the same time and determined using a UV light detector at a wavelength of 235 nm. Quantitative determination was carried out by comparison of the peak area obtained with peak areas occurring in the calibrated standard solutions. From the 5-HETE contents of the samples determined, the inhibitory activity of the test substances was calculated in % inhibition of 5-HETE synthesis in comparison to the control samples containing no test substance.

| Compound | inhibition at 10 µM |
| --- | --- |
| COc1ccc2c3c1c(C)c(-c1ccc(O)cc1)n3CC(CCN1CCN(c3cc(C)ccn3)CC1)O2 (centres unmarked) [Example 3, 2,3-Dihydro-5-(4-hydroxyphenyl)-7-methoxy-6-methyl-2-[2-(4-(4-methylpyridin-2-yl)piperazin-1-yl)ethyl]pyrrolo[1,2,3-de]-1,4-benzoxazine] | 53% |
| Cc1ccnc(N2CCN(CCC3Cn4c(-c5ccc(O)cc5)c(C)c5c(O)ccc(c54)O3)CC2)c1 (centres unmarked) [Example 4, 2,3-Dihydro-7-hydroxy-5-(4-hydroxyphenyl)-6-methyl-2-[2-(4-(4-methylpyridin-2-yl)piperazin-1-yl)ethyl]pyrrolo[1,2,3-de]-1,4-benzoxazine] | 100% |
| Cc1ccnc(N2CCN(C(=O)CCCC3Cn4c(-c5cc(C)c(O)c(C)c5)c(C)c5cccc(c54)O3)CC2)c1 (centres unmarked) [Example 9, 2,3-Dihydro-5-(3,5-dimethyl-4-hydroxyphenyl)-6-methyl-2-[4-(4-(4-methylpyridin-2-yl)piperazin-1-yl)-4-oxobutyl]-pyrrolo[1,2,3-de]-1,4-benzoxazine] | 88% |
| COc1cc(-c2c(C)c3cccc4c3n2CC(CCN2CCN(c3cc(C)ccn3)CC2)O4)ccc1O (centres unmarked) [Example 12] | 100% |
| Cc1ccnc(N2CCN(CCC3Cn4c(-c5ccc(O)c(O)c5)c(C)c5cccc(c54)O3)CC2)c1 (centres unmarked) [Example 13] | 99% |
| Cc1ccnc(N2CCN(C(=O)CCC3Cn4c(-c5ccc(O)cc5)c(C)c5cccc(c54)O3)CC2)c1 (centres unmarked) [Example 15] | 94% |
| Cc1ccnc(N2CCN(CCC3Cn4c(-c5cc(C)c(O)c(C)c5)c(C)c5cccc(c54)O3)CC2)c1 (centres unmarked) [Example 20] | 100% |
| Cc1cc(-c2c(C)c3cccc4c3n2CC(CCCC(=O)N2CCN(c3ccccn3)CC2)O4)cc(C)c1O (centres unmarked) [Example 23] | 93% |
| Cc1ccnc(N2CCN(C(=O)CCC3Cn4c(-c5cc(C)c(O)c(C)c5)c(C)c5cccc(c54)O3)CC2)c1 (centres unmarked) [Example 25] | 92% |
| Cc1cc(-c2c(C)c3cccc4c3n2CC(CCC(=O)N2CCN(c3ccccn3)CC2)O4)cc(C)c1O (centres unmarked) [Example 26] | 96% |
| Cc1cc(-c2c(C)c3c(F)ccc4c3n2CC(CCN2CCN(c3ccccn3)CC2)O4)cc(C)c1O (centres unmarked) [Example 27] | 50% |
| Cc1ccnc(N2CCN(CCC3Cn4c(-c5cc(C)c(O)c(C)c5)c(C)c5c(F)ccc(c54)O3)CC2)c1 (centres unmarked) [Example 28] | 44% |
| Cc1ccnc(N2CCN(CCCC3Cn4c(-c5cc(C)c(O)c(C)c5)c(C)c5c(F)ccc(c54)O3)CC2)c1 (centres unmarked) [Example 29] | 67% |
| Cc1ccc(N2CCN(C(=O)CCC3Cn4c(-c5ccc(O)cc5)c(C)c5cccc(c54)O3)CC2)nc1 (centres unmarked) [Example 34] | 97% |
| COc1cc(-c2c(C)c3cccc4c3n2CC(CCC(=O)N2CCN(c3ccc(C)cn3)CC2)O4)ccc1O (centres unmarked) [Example 39] | 100% |
| Cc1ccnc(N2CCN(CCC3Cn4c(-c5cc(C)c(O)c(C)c5)c(C)c5cc(F)cc(c54)O3)CC2)c1 (centres unmarked) [Example 42] | 55% |
| COc1cc2c3c(c1)c(C)c(-c1cc(C)c(O)c(C)c1)n3CC(CCN1CCN(c3cc(C)ccn3)CC1)O2 (centres unmarked) [Example 43] | 77% |
| Cc1ccnc(N2CCN(CCC3Cn4c(-c5cc(C)c(O)c(C)c5)c(C)c5cc(O)cc(c54)O3)CC2)c1 (centres unmarked) [Example 44] | 98% |
| Cc1cc(-c2c(C)c3cccc4c3n2CC(CCCCN2CCN(c3ccccn3)CC2)O4)cc(C)c1O (centres unmarked) [Example 65] | 99% |
| Cc1ccnc(N2CCN(C(=O)CCC3Cn4c(-c5cc(C)c(O)c(C)c5)c(C)c5c(O)ccc(c54)O3)CC2)c1 (centres unmarked) [Example 67] | 100% |
| Cc1ccnc(N2CCN(C(=O)CCC3Cn4c(-c5ccc(O)cc5)c(C)c5c(O)ccc(c54)O3)CC2)c1 (centres unmarked) [Example 69] | 100% |
| Cc1cc(-c2c(C)c3c(O)ccc4c3n2CC(CCC(=O)N2CCN(c3ccccn3)CC2)O4)cc(C)c1O (centres unmarked) [Example 71] | 100% |
| COc1cc(-c2c(C)c3c(O)ccc4c3n2CC(CCC(=O)N2CCN(c3ccccn3)CC2)O4)cc(C)c1O (centres unmarked) [Example 72] | 100% |
| Cc1ccnc(N2CCN(CCCC3Cn4c(-c5cc(C)c(O)c(C)c5)c(C)c5c(O)ccc(c54)O3)CC2)c1 (centres unmarked) [Example 73] | 100% |
| Cc1cccnc1N1CCN(CCCC2Cn3c(-c4cc(C)c(O)c(C)c4)c(C)c4c(O)ccc(c43)O2)CC1 (centres unmarked) [Example 74] | 100% |
| Cc1cc(-c2c(C)c3c(OCc4ccccc4)ccc4c3n2CC(CCC(=O)N2CCN(c3ccccn3)CC2)O4)cc(C)c1O (centres unmarked) [Example 75] | 100% |
